# Assay results from ChEMBL document CHEMBL3217615, “Novel 3,5-bis(arylidiene)-4-piperidone based monocarbonyl analogs of curcumin: anticancer activity evaluation and mode of action study” (2014).
# Assays:
# Type in all cases: functional
# SR = experiment: Growth inhibition of human SR cells after 48 hrs by sulforhodamine B assay
# [1] = Growth inhibition of human HOP92 cells assessed as cell growth at 10^-6 M after 48 hrs by sulforhodamine B assay; details: HOP-92, 48 h, read-out: Activity
# ACHN = experiment: Growth inhibition of human ACHN cells assessed as cell growth at 10^-7 M after 48 hrs by sulforhodamine B assay; details: read-out: Activity
# [2] = Growth inhibition of human HCC2998 cells assessed as cell growth at 10^-4 M after 48 hrs by sulforhodamine B assay; details: HCC 2998, 48 h, read-out: Activity
# MDA-MB-468 [3] = experiment: Growth inhibition of human MDA-MB-468 cells assessed as cell growth at 10^-7 M after 48 hrs by sulforhodamine B assay; details: MDA-MB-468, 48 h, read-out: Activity
# [4] = Growth inhibition of human LOXIMVI cells assessed as cell growth at 10^-4 M after 48 hrs by sulforhodamine B assay; details: LOX IMVI, read-out: Activity
# COLO 205 = experiment: Induction of apoptosis in human COLO205 cells assessed as caspase 8 activation at 10 uM by FLICA
# [5] = Growth inhibition of human SF295 cells assessed as cell growth at 10^-4 M after 48 hrs by sulforhodamine B assay; details: SF-295, 48 h, read-out: Activity
# [6] = Growth inhibition of human OVCAR4 cells assessed as cell growth at 10^-7 M after 48 hrs by sulforhodamine B assay; details: OVCAR-4, 48 h, read-out: Activity
# MDA-MB-468 [7] = experiment: Growth inhibition of human MDA-MB-468 cells assessed as cell growth at 10^-6 M after 48 hrs by sulforhodamine B assay; details: MDA-MB-468, 48 h, read-out: Activity
# [8] = Growth inhibition of human MOLT4 cells after 48 hrs by sulforhodamine B assay; details: MOLT-4, 48 h
# CCRF-CEM = experiment: Growth inhibition of human CCRF-CEM cells assessed as cell growth at 10^-4 M after 48 hrs by sulforhodamine B assay; details: read-out: Activity
# [9] = Growth inhibition of human UO31 cells assessed as cell growth at 10^-8 M after 48 hrs by sulforhodamine B assay; details: UO-31, 48 h
# HCT-116 [10] = experiment: Growth inhibition of human HCT116 cells assessed as cell growth at 10^-6 M after 48 hrs by sulforhodamine B assay; details: HCT-116, 48 h, read-out: Activity
# RPMI-8226 = experiment: Growth inhibition of human RPMI8226 cells assessed as cell growth at 10^-6 M after 48 hrs by sulforhodamine B assay; details: RPMI-8226, 48 h, read-out: Activity
# [11] = Growth inhibition of human MOLT4 cells assessed as cell growth at 10^-7 M after 48 hrs by sulforhodamine B assay; details: MOLT-4, 48 h, read-out: Activity
# HCT-116 [12] = experiment: Growth inhibition of human HCT116 cells assessed as cell growth at 10^-4 M after 48 hrs by sulforhodamine B assay; details: HCT-116, 48 h, read-out: Activity
# [13] = Growth inhibition of human OVCAR4 cells assessed as cell growth at 10^-4 M after 48 hrs by sulforhodamine B assay; details: OVCAR-4, 48 h, read-out: Activity
# [14] = Growth inhibition of human SF295 cells assessed as cell growth at 10^-7 M after 48 hrs by sulforhodamine B assay; details: SF-295, 48 h, read-out: Activity
# SK-MEL-2 = experiment: Growth inhibition of human SK-MEL-2 cells assessed as cell growth at 10^-5 M after 48 hrs by sulforhodamine B assay; details: SK-MEL-2, 48 h, read-out: Activity
# NCI-H322M = experiment: Growth inhibition of human NCI-H322M cells assessed as cell growth at 10^-7 M after 48 hrs by sulforhodamine B assay; details: read-out: Activity
# IGROV-1 [15] = experiment: Growth inhibition of human IGROV1 cells assessed as cell growth at 10^-8 M after 48 hrs by sulforhodamine B assay; details: IGROV-1, 48 h
# SK-MEL-28 = experiment: Growth inhibition of human SK-MEL-28 cells assessed as cell growth at 10^-7 M after 48 hrs by sulforhodamine B assay; details: SK-MEL-28, 48 h, read-out: Activity
# IGROV-1 [16] = experiment: Growth inhibition of human IGROV1 cells after 48 hrs by sulforhodamine B assay; details: IGROV-1, 48 h
# SNB-75 [17] = experiment: Growth inhibition of human SNB75 cells assessed as cell growth at 10^-7 M after 48 hrs by sulforhodamine B assay; details: SNB-75, 48 h, read-out: Activity
# MDA-MB-468 [18] = experiment: Growth inhibition of human MDA-MB-468 cells assessed as cell growth at 10^-8 M after 48 hrs by sulforhodamine B assay; details: MDA-MB-468, 48 h
# SN12C = experiment: Growth inhibition of human SN12C cells assessed as cell growth at 10^-6 M after 48 hrs by sulforhodamine B assay; details: read-out: Activity
# U-251 = experiment: Growth inhibition of human U251 cells assessed as cell growth at 10^-8 M after 48 hrs by sulforhodamine B assay; details: U-251, 48 h
# SNB-75 [19] = experiment: Growth inhibition of human SNB75 cells assessed as cell growth at 10^-8 M after 48 hrs by sulforhodamine B assay; details: SNB-75, 48 h
# MDA-MB-468 [20] = experiment: Growth inhibition of human MDA-MB-468 cells assessed as cell growth at 10^-4 M after 48 hrs by sulforhodamine B assay; details: MDA-MB-468, 48 h, read-out: Activity
# CAKI-1 [21] = experiment: Growth inhibition of human CAKI-1 cells assessed as cell growth at 10^-8 M after 48 hrs by sulforhodamine B assay; details: CAKI-1, 48 h
# A498 = experiment: Growth inhibition of human A498 cells after 48 hrs by sulforhodamine B assay; details: A498, 48 h
# [22] = Growth inhibition of human MOLT4 cells assessed as cell growth at 10^-6 M after 48 hrs by sulforhodamine B assay; details: MOLT-4, 48 h, read-out: Activity
# CAKI-1 [23] = experiment: Growth inhibition of human CAKI-1 cells assessed as cell growth at 10^-6 M after 48 hrs by sulforhodamine B assay; details: CAKI-1, 48 h, read-out: Activity
# Malme-3M = experiment: Growth inhibition of human MALME-3M cells assessed as cell growth at 10^-7 M after 48 hrs by sulforhodamine B assay; details: read-out: Activity
# [24] = read-out: LC50 (the source's name)
# [25] = read-out: pLC50 (the source's name) (converted)
structure (smiles),measurement,setting,value
O=C1/C(=C/c2ccc(Cl)cc2Cl)CN(S(=O)(=O)c2ccccc2)C/C1=C\c1ccc(Cl)cc1Cl,GI50,SR,185 nM
same,TGI,SR,865 nM
same,CC50,SR; [24],> 100000 nM
same,growth at 1 µM,[1],72%
same,growth at 0.1 µM,ACHN,96%
same,growth at 100 µM,[2],-66%
same,growth at 0.1 µM,MDA-MB-468 [3],94%
same,growth at 100 µM,[4],-48%
same,Activity,COLO 205,23%
same,growth at 100 µM,[5],-11%
same,growth at 0.1 µM,[6],82%
same,growth at 1 µM,MDA-MB-468 [7],55%
same,GI50,[8],594 nM
same,TGI,[8],9050 nM
same,CC50,[8]; [24],> 100000 nM
same,growth at 100 µM,CCRF-CEM,-19%
same,GI50,[9],234 nM
same,LC50,[9],4790 nM
same,growth at 0.01 µM,[9]; read-out: Activity,88%
same,TGI,[9]; read-out: pTGI (converted),646 nM
same,growth at 1 µM,HCT-116 [10],-56%
same,growth at 1 µM,RPMI-8226,-25%
same,growth at 0.1 µM,[11],106%
same,growth at 100 µM,HCT-116 [12],-76%
same,growth at 100 µM,[13],15%
same,growth at 0.1 µM,[14],93%
same,growth at 10 µM,SK-MEL-2,36%
same,growth at 0.1 µM,NCI-H322M,123%
same,GI50,IGROV-1 [15],316 nM
same,LC50,IGROV-1 [15],> 100000 nM
same,growth at 0.01 µM,IGROV-1 [15]; read-out: Activity,116%
same,TGI,IGROV-1 [15]; read-out: pTGI (converted),646 nM
same,growth at 0.1 µM,SK-MEL-28,93%
same,GI50,IGROV-1 [16],317 nM
same,TGI,IGROV-1 [16],649 nM
same,CC50,IGROV-1 [16]; [24],> 100000 nM
same,growth at 0.1 µM,SNB-75 [17],71%
same,GI50,MDA-MB-468 [18],1120 nM
same,growth at 0.01 µM,MDA-MB-468 [18]; read-out: Activity,90%
same,CC50,MDA-MB-468 [18]; [25],> 100000 nM
same,TGI,MDA-MB-468 [18]; read-out: pTGI (converted),3890 nM
same,growth at 1 µM,SN12C,-15%
same,GI50,U-251,174 nM
same,LC50,U-251,813 nM
same,growth at 0.01 µM,U-251; read-out: Activity,96%
same,TGI,U-251; read-out: pTGI (converted),372 nM
same,GI50,SNB-75 [19],437 nM
same,LC50,SNB-75 [19],> 100000 nM
same,growth at 0.01 µM,SNB-75 [19]; read-out: Activity,79%
same,TGI,SNB-75 [19]; read-out: pTGI (converted),7240 nM
same,growth at 100 µM,MDA-MB-468 [20],-34%
same,GI50,CAKI-1 [21],1820 nM
same,growth at 0.01 µM,CAKI-1 [21]; read-out: Activity,89%
same,CC50,CAKI-1 [21]; [25],> 100000 nM
same,TGI,CAKI-1 [21]; read-out: pTGI (converted),5750 nM
same,GI50,A498,727 nM
same,TGI,A498,4390 nM
same,CC50,A498; [24],> 100000 nM
same,growth at 1 µM,[22],34%
same,growth at 1 µM,CAKI-1 [23],77%
same,growth at 0.1 µM,Malme-3M,129%
